Tests used:
MEC1 CLL cell line [1] = assay: cells; set-up: alamarBlue (resazurin reduction) viability assay in MEC1 CLL cells; conditions: Homo sapiens, MEC1, 24 h; read-out: alamarBlue EC50 (uM) average
Excerpt: Defective p53-signalling increases genomic instability and drives tumour progression. A high frequency of p53 inactivation is found in relapsed, treatment-resistant, high risk CLL.[30] […] Owing to resource availability a subset of up to ten of these compounds was prioritised for further investigation. Compounds 2d, 2e, 2j, 2aa, 5a, 5d, 5e, 5f, 5ab and 6b were selected on the basis of reasons including ease of synthetic access, diversity across the chemical space probed and novelty. Those prepared under conditions (i)Scheme 1 (2d, 5a and 6b) were available on a scale and in a purity to directly permit follow-up studies, whereas compounds prepared under conditions (ii)Scheme 1 were prepared on a small scale so were resynthesised. These seven compounds (2e, 2j, 2aa, 5d, 5e, 5f and 5ab) were isolated on >30 mg scale in high purity and progressed to more following studies. Biological efforts at Sygnature Discovery (where differing to University of Birmingham) MEC1 cells were obtained from the American Type Culture Collection (Manassas, VA 20110 USA) and were routinely cultured in RPMI 1640 medium (Sigma-Aldrich) supplemented with 1% L-glutamine (Sigma-Aldrich), 1% Penicillin/Streptomycin (Sigma-Aldrich) and 10% FBS (Gibco). The MEC1 proliferation assay was conducted by performing a re-feed of the MEC1 cells 24 h prior to cell seeding. On the day of the assay, cells were seeded into a 384-well assay plate at a density of 12,500 cells/well in 25 μL of complete MEC1 medium. Compound treatment was performed on the day of cell seeding, with compounds prepared as duplicate compound response curves (final DMSO concentration of 0.6%). Post compound treatment, MEC1 assay plates were returned to a 37 °C/5% CO2 incubator for 24 h of incubation. Following compound treatment, cellular viability was determined by measuring reduction of alamarBlue® reagent (Invitrogen). alamarBlue® reagent (2.5 μL) was added to each assay well to give a 1:10 dilution of the neat stock and assay plates were incubated for 3 h at 37 °C/5% CO2. Reduction of alamarBlue® was determined using an Envision Xcite plate reader (Perkin Elmer) with an excitation wavelength of 560 nm set and an emission wavelength of 590 nm set. Cell viability was determined by normalising raw fluorescent data to a cell only high control and Parthenolide treated low control to provide percentage viability readout. Data was plotted and EC50 values extracted and reported EC50s represent an average of at least two independent assays.

MEC1 CLL cell line [2] = assay: alamarBlue assay, in vitro antileukaemic activity against MEC1 CLL cell line; format: cell-based
Excerpt: Defective p53-signalling increases genomic instability and drives tumour progression. A high frequency of p53 inactivation is found in relapsed, treatment-resistant, high risk CLL.[30] […] Owing to resource availability a subset of up to ten of these compounds was prioritised for further investigation. Compounds 2d, 2e, 2j, 2aa, 5a, 5d, 5e, 5f, 5ab and 6b were selected on the basis of reasons including ease of synthetic access, diversity across the chemical space probed and novelty. Those prepared under conditions (i)Scheme 1 (2d, 5a and 6b) were available on a scale and in a purity to directly permit follow-up studies, whereas compounds prepared under conditions (ii)Scheme 1 were prepared on a small scale so were resynthesised. These seven compounds (2e, 2j, 2aa, 5d, 5e, 5f and 5ab) were isolated on >30 mg scale in high purity and progressed to more following studies.
Following the identification of 5f as the most promising drug-like derivative of PTL from the aforementioned parallel/high-throughput screening, the anti-leukaemic activity of 5f was tested once more and compared directly with that of PTL (1) and DMAPT (2a), which serve as comparators and positive controls.
Amine 7 was successfully prepared as follows: 4-Piperidinecarboxylic acid was N-Boc protected to deliver 8 in 92% yield.[43] In order to confidently assign the NMR spectra of compound 8 J-MOD, HSQC and ^1H–^1H COSY were helpful, particularly in establishing that a broad resonance in the proton-decoupled ^13C NMR spectrum, centred on 42.8 ppm, corresponds to the ring-carbons bonded to nitrogen. The carboxylic acid of 8 was converted to the corresponding ethyl-3-keto-propanoate 9 in 24% yield. Conversion of 9 to the N-Boc protected congener 10, was achieved by treatment with acetamidine hydrochloride and potassium carbonate, furnishing 10 in 77% yield. Treatment with trifluoroacetic acid delivered desired compound 7 in 99% yield for the Boc-deprotection step (scale 200 mg, 17% over four linear steps). Thus, evidencing accessibility of amine 7 and with it in hand, it was timely to probe any activity arising from the amine alone. MEC1 sensitivity to 1, 5f and 7 was compared in parallel using the alamarBlue® assay (Fig. 6). […] A pre-peer-reviewed preprint of this article was deposited and may be viewed elsewhere.[44]

SMILES	EC50 (MEC1 CLL cell line [1])	further results
CC1=CCCC2(C)OC2C2OC(=O)C(CN(C)C(C)C)C2CC1 (stereo not drawn) [2b]	> 30 µM	
CC1=CCCC2(C)OC2C2OC(=O)C(CN(C)CCO)C2CC1 (stereo not drawn) [2c]	5.2 µM	
CC1=CCCC2(C)OC2C2OC(=O)C(CN(C)Cc3ccc(Cl)cc3)C2CC1 (stereo not drawn) [2h]	18.3 µM	
CCOc1cccc(CN(CCO)CC2C(=O)OC3C2CCC(C)=CCCC2(C)OC32)c1 (stereo not drawn) [2i]	19.2 µM	
CC1=CCCC2(C)OC2C2OC(=O)C(CN(C)Cc3n[nH]c4c3CCCCC4)C2CC1 (stereo not drawn) [2k]	19.3 µM	
CCN(Cc1cc(Cl)ccc1OC)CC1C(=O)OC2C1CCC(C)=CCCC1(C)OC21 (stereo not drawn) [2l]	19.8 µM	
CC1=CCCC2(C)OC2C2OC(=O)C(CN(C)Cc3nnc(-c4ccccc4)o3)C2CC1 (stereo not drawn) [2n]	> 30 µM	
CC1=CCCC2(C)OC2C2OC(=O)C(CN(C)Cc3cccc(C(F)(F)F)c3)C2CC1 (stereo not drawn) [2p]	> 30 µM	
CC1=CCCC2(C)OC2C2OC(=O)C(CN(C)Cc3nc(-c4ccccn4)no3)C2CC1 (stereo not drawn) [2q]	> 30 µM	
CC1=CCCC2(C)OC2C2OC(=O)C(CN(Cc3sccc3C)C3CC3)C2CC1 (stereo not drawn) [2r]	> 30 µM	
CCCc1nc(CN(CC)CC2C(=O)OC3C2CCC(C)=CCCC2(C)OC32)no1 (stereo not drawn) [2s]	> 30 µM	
CC1=CCCC2(C)OC2C2OC(=O)C(CN(Cc3ccco3)Cc3cccs3)C2CC1 (stereo not drawn) [2t]	> 30 µM	
CC1=CCCC2(C)OC2C2OC(=O)C(CN(Cc3ccncc3)Cc3ccc4c(c3)OCO4)C2CC1 (stereo not drawn) [2u]	> 30 µM	
CC1=CCCC2(C)OC2C2OC(=O)C(CN(C)Cc3nc4cc(C)c(C)cc4[nH]3)C2CC1 (stereo not drawn) [2y]	> 30 µM	
CC1=CCCC2(C)OC2C2OC(=O)C(CNCCO)C2CC1 (stereo not drawn) [4a]	19 µM	
CC1=CCCC2(C)OC2C2OC(=O)C(CNCc3ccc(F)cc3C(F)(F)F)C2CC1 (stereo not drawn) [4aa]	> 30 µM	
CC1=CCCC2(C)OC2C2OC(=O)C(CNCc3c(F)cccc3C(F)(F)F)C2CC1 (stereo not drawn) [4ab]	> 30 µM	
CC1=CCCC2(C)OC2C2OC(=O)C(CNCc3ccc(Cl)cc3Cl)C2CC1 (stereo not drawn) [4ac]	> 30 µM	
CC1=CCCC2(C)OC2C2OC(=O)C(CNCc3c(F)cccc3Cl)C2CC1 (stereo not drawn) [4ad]	> 30 µM	
COCCNCC1C(=O)OC2C1CCC(C)=CCCC1(C)OC21 (stereo not drawn) [4b]	> 30 µM	
CC1=CCCC2(C)OC2C2OC(=O)C(CNCc3ccccc3)C2CC1 (stereo not drawn) [4c]	20.4 µM	

SMILES	EC50 (MEC1 CLL cell line [1])	further results
C#CCNCC1C(=O)OC2C1CCC(C)=CCCC1(C)OC21 (stereo not drawn) [4d]	> 30 µM	
CC1=CCCC2(C)OC2C2OC(=O)C(CNCC3CCOCC3)C2CC1 (stereo not drawn) [4f]	23.3 µM	
CC1=CCCC2(C)OC2C2OC(=O)C(CNCCOc3cccc(C)c3)C2CC1 (stereo not drawn) [4h]	21.9 µM	
CC1=CCCC2(C)OC2C2OC(=O)C(CNCc3ccc(Cl)cc3F)C2CC1 (stereo not drawn) [4i]	> 30 µM	
COc1ccc(-c2noc(CNCC3C(=O)OC4C3CCC(C)=CCCC3(C)OC43)n2)cc1OC (stereo not drawn) [4k]	> 30 µM	
CC1=CCCC2(C)OC2C2OC(=O)C(CNCc3c(F)cc(F)cc3F)C2CC1 (stereo not drawn) [4l]	> 30 µM	
CC1=CCCC2(C)OC2C2OC(=O)C(CNCc3ccco3)C2CC1 (stereo not drawn) [4m]	> 30 µM	
CC1=CCCC2(C)OC2C2OC(=O)C(CNCc3ccc(N(C)C)cc3)C2CC1 (stereo not drawn) [4n]	> 30 µM	
COc1ccccc1CNCC1C(=O)OC2C1CCC(C)=CCCC1(C)OC21 (stereo not drawn) [4p]	> 30 µM	
CC1=CCCC2(C)OC2C2OC(=O)C(CNCc3ccccc3N(C)C)C2CC1 (stereo not drawn) [4q]	> 30 µM	
CC1=CCCC2(C)OC2C2OC(=O)C(CNCC(C)(C)N3CCOCC3)C2CC1 (stereo not drawn) [4r]	> 30 µM	
CC1=CCCC2(C)OC2C2OC(=O)C(CNCCc3nccs3)C2CC1 (stereo not drawn) [4s]	> 30 µM	
CC1=CCCC2(C)OC2C2OC(=O)C(CNCc3c(Cl)cccc3Cl)C2CC1 (stereo not drawn) [4t]	> 30 µM	
CC1=CCCC2(C)OC2C2OC(=O)C(CNCc3ccccc3C(F)(F)F)C2CC1 (stereo not drawn) [4u]	> 30 µM	
CC1=CCCC2(C)OC2C2OC(=O)C(CNCc3ccc(C(F)(F)F)cc3)C2CC1 (stereo not drawn) [4v]	> 30 µM	
CC1=CCCC2(C)OC2C2OC(=O)C(CNCc3ccc(OC(F)(F)F)cc3)C2CC1 (stereo not drawn) [4w]	> 30 µM	
CC1=CCCC2(C)OC2C2OC(=O)C(CNCc3ccccc3OC(F)(F)F)C2CC1 (stereo not drawn) [4x]	> 30 µM	
CC1=CCCC2(C)OC2C2OC(=O)C(CNCc3cccc(OC(F)(F)F)c3)C2CC1 (stereo not drawn) [4y]	> 30 µM	
CC1=CCCC2(C)OC2C2OC(=O)C(CNCc3c(F)cccc3F)C2CC1 (stereo not drawn) [4z]	> 30 µM	
CC1=CCCC2(C)OC2C2OC(=O)C(CN3CCCCC3)C2CC1 (stereo not drawn) [5b]	7.8 µM	
CC1=CCCC2(C)OC2C2OC(=O)C(CN3CCN(C)CC3)C2CC1 (stereo not drawn) [5c]	> 30 µM	

SMILES	EC50 (MEC1 CLL cell line [1])	further results
CC1=CCCC2(C)OC2C2OC(=O)C(CN3CCC4(CC3)OCCO4)C2CC1 (stereo not drawn) [5g]	15.2 µM	
CCCC1CCN(CC2C(=O)OC3C2CCC(C)=CCCC2(C)OC32)CC1 (stereo not drawn) [5i]	22.2 µM	
COCCN1CCN(CC2C(=O)OC3C2CCC(C)=CCCC2(C)OC32)CC1 (stereo not drawn) [5j]	19.5 µM	
CC1=CCCC2(C)OC2C2OC(=O)C(CN3CCC(N4CCc5ccccc5C4)CC3)C2CC1 (stereo not drawn) [5k]	16.3 µM	
CC1=CCCC2(C)OC2C2OC(=O)C(CN3CCN(c4ncccn4)CC3)C2CC1 (stereo not drawn) [5m]	24.8 µM	
CC1=CCCC2(C)OC2C2OC(=O)C(CN3CCN(Cc4cccc(C)c4)C(=O)C3)C2CC1 (stereo not drawn) [5o]	> 30 µM	
CC1=CCCC2(C)OC2C2OC(=O)C(CN3CCC(C#N)(c4ccccc4)CC3)C2CC1 (stereo not drawn) [5p]	> 30 µM	
CC1=CCCC2(C)OC2C2OC(=O)C(CN3CCC(N4CCCCC4)CC3)C2CC1 (stereo not drawn) [5r]	> 30 µM	
CC1=CCCC2(C)OC2C2OC(=O)C(CN3CCN(C(C)(C)C)CC3)C2CC1 (stereo not drawn) [5s]	> 30 µM	
CC1=CCCC2(C)OC2C2OC(=O)C(CN3CCN(CCc4cccs4)CC3)C2CC1 (stereo not drawn) [5t]	> 30 µM	
CC1=CCCC2(C)OC2C2OC(=O)C(CN3CCN(CC4CCCCC4)CC3)C2CC1 (stereo not drawn) [5u]	> 30 µM	
CC1=CCCC2(C)OC2C2OC(=O)C(CN3CCn4c(nnc4C(F)(F)F)C3)C2CC1 (stereo not drawn) [5v]	> 30 µM	
CCCCN1CCN(CC2C(=O)OC3C2CCC(C)=CCCC2(C)OC32)CC1 (stereo not drawn) [5x]	> 30 µM	
Cc1nc(O)cc(C2CCNCC2)n1 [Amine 7]		EC50 (MEC1 CLL cell line [2]; MEC1 cells, alamarBlue, 1, 5f and 7 compared in parallel, CalcuSyn): could not be determined
CC1=CCCC2(C)OC2C2OC(=O)C(CN(C)CCO)C2CC1 (stereo not drawn) [Compound 2c]		EC50 (MEC1 CLL cell line [2]; Homo sapiens, MEC1, read-out: EC50 ave., MEC1 cell line, alamarBlue assay, library screen): < 15 µM
C/C1=C\CC[C@@]2(C)O[C@@H]2[C@H]2OC(=O)[C@@H](CN(CC3CC3)C(C)C)[C@@H]2CC1 [Compound 2f]	12.2 µM	EC50 (MEC1 CLL cell line [2]; Homo sapiens, MEC1, MEC1 cell line, alamarBlue assay, library screen, read-out: EC50 ave.): < 15 µM
CC1=CCCC2(C)OC2C2OC(=O)C(CSCCO)C2CC1 (stereo not drawn) [Compound 3]		activity against the MEC1 CLL cell line (MEC1 CLL cell line [2]; result in words): lack of activity
C=C1C(=O)O[C@@H]2[C@H]3O[C@]3(C)CC/C=C(\C)CC[C@@H]12 [PTL, parthenolide]		EC50 (MEC1 CLL cell line [2]; Homo sapiens, MEC1, MEC1 cells, alamarBlue, 1, 5f and 7 compared in parallel, CalcuSyn, read-out: EC50): 3.6 µM; EC50 (MEC1 CLL cell line [2]; Homo sapiens, MEC1, MEC1 cells, alamarBlue, direct comparison of 5f with PTL and DMAPT, n = 5, read-out: EC50): 6.2 µM
CC1=CCCC2(C)OC2C2OC(=O)C(CSCCO)C2CC1 (stereo not drawn) [compound 3]	> 30 µM	

Reference: paper PMC7478165, “Derivatisation of parthenolide to address chemoresistant chronic lymphocytic leukaemia” (MedChemComm, 2019)
